Patent EP0452101B1, “Spiro bridged and unbridged heterocyclic compounds” (ISRAEL INSTITUTE FOR BIOLOGICAL RESEARCH, priority 1990, dated 1991)

What was measured:
M1 muscarinic receptor [1] = target: T1, M1 muscarinic receptor (Rattus norvegicus, UniProt P08482); test: Displacement of 3H-PZ from cortical binding sites, Tris/Mn buffer, with and without GppNHp; set-up: from tissue; host or cells: rat cerebral cortex homogenates; conditions: for KL-G / KH-G: ratio of low and high affinities without GppNHp
T1 sequence (P08482 1-460): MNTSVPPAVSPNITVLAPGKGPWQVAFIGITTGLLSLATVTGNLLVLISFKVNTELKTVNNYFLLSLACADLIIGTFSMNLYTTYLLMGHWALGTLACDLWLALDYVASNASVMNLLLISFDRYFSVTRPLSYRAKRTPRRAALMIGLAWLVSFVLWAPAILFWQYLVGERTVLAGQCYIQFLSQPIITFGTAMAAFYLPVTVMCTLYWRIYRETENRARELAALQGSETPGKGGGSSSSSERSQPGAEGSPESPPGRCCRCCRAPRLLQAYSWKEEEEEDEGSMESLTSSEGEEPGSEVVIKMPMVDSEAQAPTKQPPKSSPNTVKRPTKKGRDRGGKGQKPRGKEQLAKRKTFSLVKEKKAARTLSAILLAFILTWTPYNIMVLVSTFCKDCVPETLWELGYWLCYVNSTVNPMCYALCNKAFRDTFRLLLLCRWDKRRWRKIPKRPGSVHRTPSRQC
Source text: The binding of agonists to M1 muscarinic receptors and the effect of guanylyl imidophosphate (GppNHp). Agonists are known to be coupled with guanine nucleotide binding proteins (G proteins).
Non-hydrolyzable guanine nucleotides such as GppNHp dissociate the G protein from the receptor and decrease the affinity of the receptor for agonists but not for antagonists. […] Molec.
Under these conditions agonists of high efficacy ("full agonists") bind directly to the M1 receptor subtype with two affinities. […] The ratio of low and high affinities (KL/KH) of the M1 receptor may predict the relative efficacies of agonists to activate putative M1 receptor-mediated second messenger systems.
KH, KL, %H and %L are the apparent inhibition constants of the tested ligands for the high and low affinity sites, respectively. G is GppNHp (guanylyl imidodiphosphate), and was used in 0.1 mM concentration. Displacement of ^3H-PZ from cortical binding sites was performed in Tris/Mn buffer (pH 7.4) for one hour at 25°C; the buffer included 1 mM EDTA and 2mM Mn^++ ions. […] The binding data were analyzed using a GraphPAD program and were fitted to one or two components. Values are means from 1-3 experiments carried out in triplicates.

m1 receptors = target: T2, m1 receptors (Rattus norvegicus, UniProt P08482); test: PI hydrolysis in CHO cells transfected with m1 receptors; format: cell-based; conditions: for EC50: CHO m1, PI hydrolysis; for PI (phosphoinositides hydrolysis): tested at 1mM
T2 construct: expressed in transfected cells; host or cells: CHO cells
T2 sequence (P08482 1-460): T1 sequence (P08482 1-460)

[2] = target: T3, m3 subtype (SK-N-SH cells) (Homo sapiens, UniProt P20309); test: PI hydrolysis in SK-N-SH neuroblastoma cells; format: cell-based
T3 construct: endogenous in cells; host or cells: SK-N-SH human neuroblastoma cells
Description: (§1) The new compounds AF150, AF151, AF150(S) and AF125 were assayed for their ability to stimulate PI in CHO cells transfected with m1 and m3 receptors, respectively (Buck and Fraser, loc cit), and in cultured human neuroblastoma cells, line SK-N-SH, which express mainly the m3 subtype, but not the m1 subtype (Pinkas-Kramarski et al, Neurosci. Lett. 188: 335-340, 1990; Luthin et al Mol. Pharmacol. 34: 327-333, 1988). These compounds were also assayed on cultured PC12 cells which express mainly m4 subtype receptors and are coupled to inhibition of AC activity (Pinkas-Kramarski et al, loc cit).
(§2) Stimulation of PI breakdown was assayed using the method described by Stein et al (EMBO J. 7: 3031-3035, 1988), and modulation of AC activity was assayed by the method of Stein et al, loc cit and Pinkas-Kramarski et al (FEBS Lett., 239: 174-178, 1988). […]

[3] = system: rat cerebral cortex synaptosomes; test: Synaptosomal 3H-ACh release, basal and K+-evoked
Source text: The effects of AF150 (and for comparison purposes, AF125, MeN-A-343 and oxotremorine) on basal- and K^+-evoked release of ^3H-ACh were studied on synaptosomes prepared from rat cerebral cortex using the methods described in detail by Pittel et al (J. Neurochem., 55: 665-672, 1990). […] On the other hand, the action of AF150 on presynaptic muscarinic receptors, causing an increase in K^+-evoked ACh release, can be considered either as an M2 antagonistic or an M1 agonistic effect. […] The existence of muscarinic autoreceptors that increase ACh release was manifested also in the PNS in smooth muscle preparation (Kilbinger and Nafziger, Naunyn Schmiedebergs Arch. Pharmacol. 328: 304-309, 1985).

M1 muscarinic receptor [4] = target: T1, M1 muscarinic receptor; test: Displacement of 3H-PZ from rat cerebral cortex, 10 mM phosphate buffer; format: binding; set-up: from tissue; host or cells: rat cerebral cortex homogenates
M1 muscarinic receptor [5] = target: T1, M1 muscarinic receptor; test: Potentiation of AC activity (basal and forskolin-stimulated cAMP) via m1 receptors; format: cell-based; set-up: expressed in transfected cells; host or cells: CHO cells
Source text: Stimulation of m1 and m3 receptors elicit dose-dependent increases in the hydrolysis of phosphoinositides (PI). Agonist activation of the m1 receptor also elicits increases in basal and forskolin-stimulated cAMP, whereas the m3 receptor has no effect on intracellular cAMP levels (Buck and Fraser, Biochem. Biophys. Res. Comm. 173: 662-672, 1990). Stimulation of the m2 and m4 receptors by muscarinic agonists leads to preferential inhibition of adenylate cyclase (AC) activity (Mei et al, Life Sciences, 45: 1831-1851, 1989).

m3 receptors = m3 receptors (Rattus norvegicus, UniProt P08483); test: PI hydrolysis in CHO cells transfected with m3 receptors; format: cell-based; conditions: for effective concentration which induces the effect: CHO m3, PI hydrolysis, footnote b; for PI (phosphoinositides hydrolysis): CHO m3, tested at 1mM
Description: as §1, §2

[6] = +G (0.1 mM GppNHp), read-out: KH
[7] = +G (0.1 mM GppNHp), read-out: KL
[8] = -G (without GppNHp), read-out: KH
[9] = cortex, Table 4, read-out: 3H-PZ-Binding KH (a)

T3 sequence (P20309 whole entry): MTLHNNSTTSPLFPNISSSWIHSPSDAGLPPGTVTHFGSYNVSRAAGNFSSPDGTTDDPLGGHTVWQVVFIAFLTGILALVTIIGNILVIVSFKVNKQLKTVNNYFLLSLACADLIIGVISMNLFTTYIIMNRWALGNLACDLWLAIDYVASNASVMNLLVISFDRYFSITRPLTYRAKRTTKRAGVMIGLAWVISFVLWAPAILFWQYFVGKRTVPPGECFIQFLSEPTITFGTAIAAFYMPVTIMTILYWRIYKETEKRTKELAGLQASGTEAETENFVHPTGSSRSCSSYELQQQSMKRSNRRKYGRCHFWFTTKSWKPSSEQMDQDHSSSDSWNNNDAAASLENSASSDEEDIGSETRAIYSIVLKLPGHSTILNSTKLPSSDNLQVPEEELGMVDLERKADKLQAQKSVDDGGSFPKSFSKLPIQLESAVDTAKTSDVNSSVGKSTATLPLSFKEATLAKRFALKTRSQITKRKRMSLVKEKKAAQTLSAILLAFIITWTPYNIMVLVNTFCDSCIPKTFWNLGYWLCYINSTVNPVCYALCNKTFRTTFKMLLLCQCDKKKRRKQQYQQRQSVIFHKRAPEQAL
Chain of m3 receptors (P08483 whole entry): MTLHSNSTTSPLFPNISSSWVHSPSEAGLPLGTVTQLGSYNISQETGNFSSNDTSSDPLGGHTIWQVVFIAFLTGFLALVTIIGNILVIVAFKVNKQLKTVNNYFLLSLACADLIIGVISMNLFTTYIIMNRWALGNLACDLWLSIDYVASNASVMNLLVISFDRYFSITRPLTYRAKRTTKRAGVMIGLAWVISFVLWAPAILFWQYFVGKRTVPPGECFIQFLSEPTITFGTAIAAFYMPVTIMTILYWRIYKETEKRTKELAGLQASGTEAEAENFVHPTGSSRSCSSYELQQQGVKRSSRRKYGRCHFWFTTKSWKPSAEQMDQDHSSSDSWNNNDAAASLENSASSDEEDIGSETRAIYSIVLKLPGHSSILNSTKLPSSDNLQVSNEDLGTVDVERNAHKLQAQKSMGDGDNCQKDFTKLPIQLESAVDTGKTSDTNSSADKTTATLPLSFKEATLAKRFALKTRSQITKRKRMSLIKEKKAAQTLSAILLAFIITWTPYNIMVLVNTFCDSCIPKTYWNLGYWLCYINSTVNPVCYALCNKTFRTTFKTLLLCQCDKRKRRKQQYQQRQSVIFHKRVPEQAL

CC1=NCC2(CN3CCC2CC3)O1 (racemic) [AF125, 2-Methyl-spiro(1,3 oxazoline-5,3')quinuclidine]
Ki (M1 muscarinic receptor [1]; [6]): 9 µM
Ki (M1 muscarinic receptor [1]; [7]): 12 µM
Ki (M1 muscarinic receptor [1]; [8]): 9 µM
Ki (M1 muscarinic receptor [1]; -G, read-out: KL): 12 µM
PI, % of carbachol effect (m1 receptors; CHO m1): 14%
interference with the effect of carbachol [2]: 10-20%
stimulation of phosphoinositides hydrolysis relative to carbachol [2]: 20-25%
PI, % of carbachol effect ([2]; SK-N-SH m3): 20%
K+-evoked 3H-ACh release ([3]; 1.0 mM): 78±9 (2) %
Ki (M1 muscarinic receptor [4]; [9]): 4 µM

CC1=NCC2(CCN(C)CC2)O1 [AF150, 2-Methyl-spiro(1,3-oxazoline-5,4')-1'-methylpiperidine]
%L (M1 muscarinic receptor [1]; +G (0.1 mM GppNHp)): 100%
Ki (M1 muscarinic receptor [1]; [7]): 21 µM
% H (M1 muscarinic receptor [1]; -G): 21%
%L (M1 muscarinic receptor [1]; -G): 83%
Ki (M1 muscarinic receptor [1]; [8]): 0.11 µM
Ki (M1 muscarinic receptor [1]; -G, read-out: KL): 11 µM
KL-G / KH-G (M1 muscarinic receptor [1]): 100
EC50 (m1 receptors): 13 µM
PI (phosphoinositides hydrolysis) (m1 receptors; CHO m1): +++
increase in basal cAMP (M1 muscarinic receptor [5]): 33%
increase in forskolin-stimulated cAMP (M1 muscarinic receptor [5]): 76%
PI, % of carbachol effect ([2]; SK-N-SH m3): 40%
EC50 ([2]; SK-N-SH m3, PI hydrolysis): 3 µM
PI (phosphoinositides hydrolysis) ([2]; SK-N-SH m3, tested at 1mM): +
effective concentration which induces the effect (m3 receptors): 10^b µM
PI (phosphoinositides hydrolysis) (m3 receptors): +
Basal 3H-ACh release ([3]; 0.1 mM): 121%
K+-evoked 3H-ACh release ([3]; 0.1 mM): 110%
K+-evoked 3H-ACh release ([3]; 1.0 mM): 115±4 (6) p<0.01%
RATIOS c:a (M1 muscarinic receptor [4]; KH cerebellum (3H-QNB) : KH cortex (3H-PZ)): 225
RATIOS b:a (M1 muscarinic receptor [4]; KL : KH cortex (3H-PZ)): 900
RATIOS d:b (M1 muscarinic receptor [4]; KL cerebellum (3H-QNB) : KL cortex (3H-PZ)): 4.4
% H (M1 muscarinic receptor [4]; cortex, Table 4): 24%
%L (M1 muscarinic receptor [4]; cortex, Table 4): 76%
Ki (M1 muscarinic receptor [4]; [9]): 0.02 µM
Ki (M1 muscarinic receptor [4]; cortex, Table 4, read-out: 3H-PZ-Binding KL (b)): 18 µM

CC1=NC2(CCN(C)CC2)CO1 [AF151, 1-methylpiperidine-4-spiro-4'-(2'-methyl-1',3'-oxazoline)]
% H (M1 muscarinic receptor [1]; +G (0.1 mM GppNHp)): 17%
%L (M1 muscarinic receptor [1]; +G (0.1 mM GppNHp)): 83%
Ki (M1 muscarinic receptor [1]; [6]): 4.6 µM
Ki (M1 muscarinic receptor [1]; [7]): 59 µM
% H (M1 muscarinic receptor [1]; -G): 39%
%L (M1 muscarinic receptor [1]; -G): 61%
Ki (M1 muscarinic receptor [1]; [8]): 3.7 µM
Ki (M1 muscarinic receptor [1]; -G, read-out: KL): 4.8 µM
KL-G / KH-G (M1 muscarinic receptor [1]): 13
EC50 (m1 receptors): 54 µM
PI (phosphoinositides hydrolysis) (m1 receptors; CHO m1): +++
increase in basal cAMP (M1 muscarinic receptor [5]): 33%
increase in forskolin-stimulated cAMP (M1 muscarinic receptor [5]): 76%
effective concentration which induces the effect (m3 receptors): 10^b µM
PI (phosphoinositides hydrolysis) (m3 receptors): +
